Results taken from US20190309053A1, “PROLONGATION OF SURVIVAL OF AN ALLOGRAFT BY INHIBITING COMPLEMENT ACTIVITY” (Alexion Pharmaceuticals, Inc., priority 2004, published 2019).

Legend:
[1] = tested on: C3H heart allografts in presensitized BALB/c recipients; assay: Heart allograft survival in presensitized recipients (Examples 1-2); format: in vivo, mouse; details: C3H heart in skin-presensitized BALB/c; mean±SD; CsA 15 mg/kg/day s.c., CyP 40 mg/kg/day i.v. day 0 and 1, anti-C5 mAb 40 mg/kg/day i.p.
Excerpt: Rejection was defined as complete necrosis of the skin grafts.
(§1) However, the inhibitory effect of functionally blocking terminal complement cascade at the C5 level in highly sensitized recipients is unknown.

[2] = tested on: C3H heart allografts in presensitized BALB/c recipients; assay: Graft histology (H&E), presensitized model (Examples 1-2); format: in vivo, mouse; details: at rejection or POD100
Excerpt: (§2) Tissue samples were fixed in 10% buffered formaldehyde. Specimens were then embedded in paraffin, and sectioned for H&E staining. The microscopic sections were examined in a blinded fashion for severity of rejection by a pathologist. Criteria for graft rejection included the presence of vasculitis, thrombosis, hemorrhage and lymphocyte infiltration. These changes were scored as: 0, no change; 1, minimum change; 2, mild change; 3, moderate change; or 4, marked change.
as §1

[3] = tested on: heart allografts in presensitized mouse recipients; assay: Immunoperoxidase staining of heart allografts; format: in vivo; set-up: key to C3 immunoperoxidase staining grade / C5 immunoperoxidase staining grade / CD4 immunoperoxidase staining grade / CD8 immunoperoxidase staining grade / Mac-1 immunoperoxidase staining grade / IgG immunoperoxidase staining grade / IgM immunoperoxidase staining grade: 0, negative; 1+, equivocal; 2+, weak; 3+, moderate; 4+, intense
Excerpt: Four micrometer sections were cut from tissue samples embedded in Tissue-Tek O.C.T gel (Optimum Cutting Temperature, Skura Finetek, Torrance, Calif.) mounted on gelatin-coated glass microscope slides and stained by a standard indirect avidin-biotin immunoperoxidase staining method using an Elite Vectastain ABC kit (Vector Laboratories Inc., Burlingame, Calif.). Specimens were stained for CD4^+ and CD8^+ cells with biotin-conjugated rat anti-mouse CD4 mAb (clone YTS 191.1.2, Cedarlane Laboratories Ltd., Hornby, Ontario, Canada) and biotin-conjugated rat anti-mouse CD8 mAb (clone 53-6.7, Pharmingen, Franklin Lakes, N.J.), respectively. Intragraft monocyte/macrophage infiltration was detected by staining with biotin-conjugated rat anti-mouse Mac-1 mAb (Cedarlane Laboratories Ltd., Hornby, Ontario, Canada). Mouse IgG and IgM deposition in grafts was detected using biotin-conjugated goat anti-mouse-IgG and goat anti-mouse-IgM (Cedarlane). For identification of complement deposition, sections were serially incubated with goat anti-C3 or anti-C5 polyclonal Abs (Quidel, San Diego, Calif.), biotinylated rabbit anti-goat IgG (Vector Laboratories), and HRP-conjugated-streptavidin (Zymed Laboratories, South San Francisco, Calif.). Slides were washed with phosphate-buffered saline between steps, and examined under light microscopy. Negative controls were performed by omitting the primary antibodies. The immunostaining was scored in five high-power fields of each section, and five independent experiments were performed. The sections of immunoperoxidase staining were graded from 0 to 4+ according to the staining intensity: 0, negative; 1+, equivocal; 2+, weak staining; 3+, moderate staining; and 4+, very intensive staining.

[4] = tested on: terminal complement activity; assay: Complement hemolytic assay of recipient sera; format: in vivo, mouse; details: presensitized heart recipients, POD3
Method: The purified anti-C5 mAb was serially diluted twofold (175-0.1 μg/ml) in GVB^2+ buffer (gelatin Veronal-buffered saline: 0.1% gelatin, 141 mM NaCl, 0.5 mM MgCl2, 0.15 mM CaCl2), and 1.8 mM sodium barbital) and added in triplicate (50 μl/well) to a 96-well plate. BALB/c mouse serum was diluted to 40% v/v with GVB^2+ buffer and added […] to the rows of the same 96-well plate such that the final concentration of BALB/c mouse serum in each well was 20%. The plate was then incubated at room temperature for approximately 30 min while chicken erythrocytes were prepared. Chicken erythrocytes were washed 5×1 ml with GVB^2+ buffer and resuspended to a final concentration of 5×10^7/ml in GVB^2+. Four milliliters of the chicken erythrocytes were sensitized by adding anti-chicken RBC polyclonal antibody (Intercell Technologies, Hopewell, N.J., 0.1% v/v) and the cells were incubated at 4° C. for 15 min with frequent vortexing. The cells were then washed 2×1 ml with GVB^2+ and resuspended to a final volume of 2.4 ml in GVB^2+. […] The plate was read at OD 415 nm using a microplate reader and the percentage of hemolysis was determined using this formula: […]
In the current study, terminal complement activity was measured by assessing the ability of recipient mouse sera to lyse antibody presensitized chicken erythrocytes and was compared at the same time-point (POD3).

[5] = tested on: anti-donor specific IgG and IgM antibodies; assay: Flow cytometry of circulating anti-donor antibodies; format: in vivo, mouse; details: presensitized recipients, POD3
Method: The circulating anti-donor specific IgG and IgM antibodies were evaluated in the recipient serum by FACScan flow cytometry (Becton Dickinson, Mountain View, Calif.). Glotz et al., (1993); Tyan et al. (1994). Briefly, C3H mouse splenocytes were isolated and incubated at 37° C. for 30 minutes with serum from naive control and experimental groups. To stain for total IgG, IgG1, IgG2a, IgG2b and IgM, the cells were washed and incubated with FITC-conjugated goat antibody specific for the Fc portion of mouse IgG or with phycoerythrin-conjugated goat antibody specific for the μ-chain of mouse IgM (Jackson ImmunoResearch Laboratories, West Grove, Pa.), or with FITC-conjugated goat anti-mouse IgG1 (CALTAG Laboratories, Burlingame, Calif.), or with FITC-conjugated goat anti-mouse IgG2a (CALTAG), or with FITC-conjugated goat anti-mouse IgG2b (CALTAG). After 1 hour of staining at 4° C., the cells were washed with PBS, resuspended at 5×10^6/mL, and analyzed by flow cytometry for mean channel fluorescence intensity, which represents the antibody-binding reactivity.

[6] = tested on: C3H heart allografts in BALB/c mice presensitized with C3H skin grafts; assay: Accelerated rejection in presensitized heart transplantation model, allograft survival (Example 4); format: in vivo, mouse; details: BB5.1 40 mg/kg i.p. daily from day -1, cyclosporin A 15 mg/kg s.c. daily, cyclophosphamide 40 mg/kg i.v. days 0 and 1
Excerpt: In these experiments, the presensitization was brought about by prior transplantation of a skin graft. In general, presensitization can occur not only as a result of having received an earlier allograft, but can also be caused by having received multiple blood transfusions or in women who have been pregnant. Besides such presensitization methods, allografts with an ABO mismatch will be rapidly attacked and rejected because of preformed antibodies to the ABO antigens unless steps are taken to prevent such an attack.
(§3) This model is designed to mimic presensitized transplantation in humans, especially in relation to accelerated humoral rejection. Recipient mice were split into eight groups of six to eight mice each. The treatments were as follow.
Group 3″ (BB5.1 alone)—mice were administered the anti-mouse complement monoclonal antibody BB5.1 at a dose of 40 mg/kg body weight delivered intraperitoneally on a daily basis beginning at day −1 and continuing until the endpoint.
Group 4″ (cyclophosphamide alone)—mice were administered cyclophosphamide intravenously at a dose of 40 mg/kg body weight on each of days 0 and 1.
Group 6″ (BB5.1 plus cyclophosphamide)—mice were administered BB5.1 intraperitoneally at a dose of 40 mg/kg body weight on a daily basis beginning at day −1 and continuing until the endpoint. […]

[7] = tested on: C3H heart allografts in BALB/c mice presensitized with C3H skin grafts; assay: Histological changes of heart allografts at necropsy (Example 4); format: in vivo, mouse; details: endpoint, 0 normal to 4 marked change
Excerpt: as §2, §3

[8] = tested on: cardiac allograft in presensitized rats; details: cited from earlier work

| Compound | heart graft survival (grafts were rejected in) [1] [days] | graft histology (pathological features) [2] | intragraft Mac-1+ cell infiltration (monocytes and macrophages) [3] | C3 immunoperoxidase staining grade ([3]; necropsy POD3) | C5 immunoperoxidase staining grade ([3]; necropsy POD3) | CD4 immunoperoxidase staining grade ([3]; necropsy POD3) | CD8 immunoperoxidase staining grade ([3]; necropsy POD3) | IgG immunoperoxidase staining grade ([3]; necropsy POD3) | IgM immunoperoxidase staining grade ([3]; necropsy POD3) | Mac-1 immunoperoxidase staining grade ([3]; necropsy POD3) | terminal complement activity (lysis of antibody presensitized chicken erythrocytes by recipient sera) [4] | circulating anti-donor IgG levels [5] | Mean survival time [6] [days] | Hemo (hemorrhage) median histological score [7] | Infar (infarction) median histological score [7] | Lymph (lymphocyte infiltration) median histological score [7] | Throm (thrombosis) median histological score [7] | Vasc (vasculitis) median histological score [7] | time before graft rejection ([8]; Pruitt and Bollinger (1991), similar presensitized rat allograft model, sCR1 alone) | average time at which grafts were rejected ([8]; presensitized rats, cyclosporin A 10 mg/kg/day i.m. from two days prior to transplant, sCR1 single i.v. bolus 15 mg/kg before reperfusion) [days] |
| --- | --- | --- | --- | --- | --- | --- | --- | --- | --- | --- | --- | --- | --- | --- | --- | --- | --- | --- | --- | --- |
| O=P1(N(CCCl)CCCl)NCCCO1 (centres unmarked) [Cyclophosphamide, cyclophosphamide] | 3.3 ± 0.5 | typical pathological features of ACHR | moderate | 3+ | 3+ | 1+ | 1+ | 3+ | 1+ | 3+ | had no effect | partially down-regulated | 3.3 ± 0.5 | 2.0 | 4.0 | 0.0 | 3.0 | 2.0 |  |  |
| sCR1: soluble complement receptor 1; binds complements C3b and C4b |  |  |  |  |  |  |  |  |  |  |  |  |  |  |  |  |  |  | increased time before graft rejection | 44 |
